How the values were obtained:
Format in all cases: in vivo
[1] = system: Monochoria vaginalis; test: Test Example 1: herbicidal activity, application before weed generation in submerged conditions; settings: Seventeenth Table; for C: Monochoria vaginalis (herbicidal effect grade): Application herbicide amount 320 g/ha; for C (Monochoria vaginalis) herbicidal ratio grade: application herbicide amount 320 g/ha
Procedure, shortened: (§1)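 Pre-emergence application to water surface of submerged pots (4 cm depth, alluvial soil) on sowing day, with 2.5-leaf rice transplanted; emulsion diluted to g/ha rates. Grown in greenhouse at 25–30 °C; 0–5 herbicidal/crop-effect score after three weeks.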

[2] = system: Scirpus juncoides; test: as above; settings: Seventeenth Table; for B: Scirpus juncoides (herbicidal effect grade): Application herbicide amount 320 g/ha; for B (Scirpus juncoides) herbicidal ratio grade: application herbicide amount 320 g/ha
Procedure, shortened: as §1

[3] = system: Echinochloa oryzacola Vasing.; test: as above; settings: Seventeenth Table; for A: Echinochloa oryzicola Vasing. (herbicidal effect grade): Application herbicide amount 320 g/ha; for A (Echinochloa oryzicola Vasing.) herbicidal ratio grade: application herbicide amount 320 g/ha
Procedure, shortened: as §1

[4] = system: Brassica campestris L.; test: Test Example 4: effect on crop by application to foliage (diluvial soil, plastic box); settings: application to foliage, 320 g/ha
Procedure, shortened: (§2)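 Plants were grown in sterilized diluvial soil in a greenhouse at 25-30° C for 14 days, then sprayed on stems and leaves with water-diluted emulsion formulation at set rates in g/ha. Weed control and crop injury were scored 3 weeks after treatment on a 0-5 herbicidal-ratio scale, from 0 (≤5%) to 5 (≥90%).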

[5] = system: Zea mays; test: as above; settings: application to foliage, 320 g/ha
Procedure, shortened: as §2

[6] = system: directly sowed Oryza sativa; test: as above; settings: application to foliage, 320 g/ha
Procedure, shortened: as §2

[7] = system: Glycine max; test: as above; settings: application to foliage, 320 g/ha
Procedure, shortened: as §2

[8] = system: Triticum aestivum; test: as above; settings: application to foliage, 320 g/ha
Procedure, shortened: as §2

[9] = system: Beta vulgaris ssp. vulgaris; test: as above; settings: application to foliage, 320 g/ha
Procedure, shortened: as §2

[10] = system: transplanted Oryza sativa; test: Test Example 1: effect on crop, application before weed generation in submerged conditions; settings: Seventeenth Table; for a: transplanted Oryza sativa (effect on crop grade): Application herbicide amount 320 g/ha; for a (transplanted Oryza sativa) effect on crop grade: application herbicide amount 320 g/ha
Procedure, shortened: as §1

| SMILES | C: Monochoria vaginalis (herbicidal effect grade) [1] | B: Scirpus juncoides (herbicidal effect grade) [2] | A: Echinochloa oryzicola Vasing. (herbicidal effect grade) [3] | effect on crop, g (Brassica campestris L.) [4] | effect on crop, b (Zea mays) [5] | effect on crop, d (directly sowed Oryza sativa) [6] | effect on crop, c (Glycine max) [7] | effect on crop, e (Triticum aestivum) [8] | effect on crop, f (Beta vulgaris ssp. vulgaris) [9] | a: transplanted Oryza sativa (effect on crop grade) [10] | C (Monochoria vaginalis) herbicidal ratio grade [1] | B (Scirpus juncoides) herbicidal ratio grade [2] | A (Echinochloa oryzicola Vasing.) herbicidal ratio grade [3] | a (transplanted Oryza sativa) effect on crop grade [10] |
| --- | --- | --- | --- | --- | --- | --- | --- | --- | --- | --- | --- | --- | --- | --- |
| C=CCn1nnnc1NC(=O)c1ccc(C(F)(F)F)n2c(C(C)C)nnc12 [2-091] | 5 (Herbicidal ratio of 90% or more (almost completely withered)) | 5 (Herbicidal ratio of 90% or more (almost completely withered)) | 5 (Herbicidal ratio of 90% or more (almost completely withered)) | 5 (Herbicidal ratio of 90% or more (almost completely withered)) | 2 (Herbicidal ratio of 20% or more and less than 40%) | 3 (Herbicidal ratio of 40% or more and less than 70%) | 0 (Herbicidal ratio of 5% or less (almost no effect)) | 3 (Herbicidal ratio of 40% or more and less than 70%) | 5 (Herbicidal ratio of 90% or more (almost completely withered)) | 0 (Herbicidal ratio of 5% or less (almost no effect)) |  |  |  |  |
| CC(C)c1nnc2c(C(=O)Nc3nnnn3Cc3ccc(Cl)cc3)ccc(C(F)(F)F)n12 [2-093] | 4 (Herbicidal ratio of 70% or more and less than 90%) | 5 (Herbicidal ratio of 90% or more (almost completely withered)) | 5 (Herbicidal ratio of 90% or more (almost completely withered)) | 1 (Herbicidal ratio of 5% or more and less than 20%) | 0 (Herbicidal ratio of 5% or less (almost no effect)) | 3 (Herbicidal ratio of 40% or more and less than 70%) | 0 (Herbicidal ratio of 5% or less (almost no effect)) | 1 (Herbicidal ratio of 5% or more and less than 20%) | 2 (Herbicidal ratio of 20% or more and less than 40%) | 2 (Herbicidal ratio of 20% or more and less than 40%) |  |  |  |  |
| C#CCN(C)c1nnc2c(C(=O)Nc3nnnn3C)ccc(C(F)(F)F)n12 [2-094] | 5 (Herbicidal ratio of 90% or more (almost completely withered)) | 5 (Herbicidal ratio of 90% or more (almost completely withered)) | 5 (Herbicidal ratio of 90% or more (almost completely withered)) | 4 (Herbicidal ratio of 70% or more and less than 90%) | 3 (Herbicidal ratio of 40% or more and less than 70%) | 4 (Herbicidal ratio of 70% or more and less than 90%) | 1 (Herbicidal ratio of 5% or more and less than 20%) | 1 (Herbicidal ratio of 5% or more and less than 20%) | 5 (Herbicidal ratio of 90% or more (almost completely withered)) | 4 (Herbicidal ratio of 70% or more and less than 90%) |  |  |  |  |
| CN(CCC#N)c1nnc2c(C(=O)Nc3nnnn3C)ccc(C(F)(F)F)n12 [2-095] | 5 (Herbicidal ratio of 90% or more (almost completely withered)) | 5 (Herbicidal ratio of 90% or more (almost completely withered)) | 5 (Herbicidal ratio of 90% or more (almost completely withered)) | 5 (Herbicidal ratio of 90% or more (almost completely withered)) | 5 (Herbicidal ratio of 90% or more (almost completely withered)) | 5 (Herbicidal ratio of 90% or more (almost completely withered)) | 1 (Herbicidal ratio of 5% or more and less than 20%) | 3 (Herbicidal ratio of 40% or more and less than 70%) | 5 (Herbicidal ratio of 90% or more (almost completely withered)) | 5 (Herbicidal ratio of 90% or more (almost completely withered)) |  |  |  |  |
| COc1ccc(N(C)c2nnc3c(C(=O)Nc4nnnn4C)ccc(C(F)(F)F)n23)cc1 [2-099] |  |  |  | 4 (Herbicidal ratio of 70% or more and less than 90%) | 3 (Herbicidal ratio of 40% or more and less than 70%) | 4 (Herbicidal ratio of 70% or more and less than 90%) | 0 (Herbicidal ratio of 5% or less (almost no effect)) | 0 (Herbicidal ratio of 5% or less (almost no effect)) | 5 (Herbicidal ratio of 90% or more (almost completely withered)) |  | 5 (Herbicidal ratio of 90% or more (almost completely withered)) | 4 (Herbicidal ratio of 70% or more and less than 90%) | 5 (Herbicidal ratio of 90% or more (almost completely withered)) | 4 (Herbicidal ratio of 70% or more and less than 90%) |
| C=CCN(C)c1nnc2c(C(=O)Nc3nnnn3C)ccc(C(F)(F)F)n12 [2-100] |  |  |  | 5 (Herbicidal ratio of 90% or more (almost completely withered)) | 5 (Herbicidal ratio of 90% or more (almost completely withered)) | 4 (Herbicidal ratio of 70% or more and less than 90%) | 0 (Herbicidal ratio of 5% or less (almost no effect)) | 0 (Herbicidal ratio of 5% or less (almost no effect)) | 5 (Herbicidal ratio of 90% or more (almost completely withered)) |  | 5 (Herbicidal ratio of 90% or more (almost completely withered)) | 5 (Herbicidal ratio of 90% or more (almost completely withered)) | 5 (Herbicidal ratio of 90% or more (almost completely withered)) | 3 (Herbicidal ratio of 40% or more and less than 70%) |
| COCCSc1nnc2c(C(=O)Nc3nnnn3C)ccc(C(F)(F)F)n12 [2-101] |  |  |  | 5 (Herbicidal ratio of 90% or more (almost completely withered)) | 4 (Herbicidal ratio of 70% or more and less than 90%) | 5 (Herbicidal ratio of 90% or more (almost completely withered)) | 2 (Herbicidal ratio of 20% or more and less than 40%) | 3 (Herbicidal ratio of 40% or more and less than 70%) | 5 (Herbicidal ratio of 90% or more (almost completely withered)) |  | 5 (Herbicidal ratio of 90% or more (almost completely withered)) | 5 (Herbicidal ratio of 90% or more (almost completely withered)) | 5 (Herbicidal ratio of 90% or more (almost completely withered)) | 3 (Herbicidal ratio of 40% or more and less than 70%) |

— patent US9708314B2, “Heterocyclic amide compound” (NISSAN CHEMICAL INDUSTRIES, LTD., priority 2013, dated 2017)
